Test results published in PubChem BioAssay (NCI).
Several values for one entry are separate records, joined by “and”; a condition that tells them apart may be missing. Equal values may be shown once.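 Test compounds were applied to cells in 96-well plates for 48 hours at 5 doses. At the GI50, growth is halved. TGI: concentration producing complete growth inhibition.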

What was measured:
Test in all cases: NCI anticancer screen, dose series, 48 h
[1] = system: HCT-15 colon
[2] = system: LOX IMVI melanoma
[3] = system: MALME-3M melanoma
[4] = system: NCI-H522 lung
[5] = system: OVCAR-8 ovarian
[6] = system: SF-268 CNS
[7] = system: SK-OV-3 ovarian
[8] = system: TK-10 renal
[9] = system: U251 CNS
[10] = system: UACC-62 melanoma

Compound | TGI [1] | TGI [2] | TGI [3] | TGI [4] | TGI [5] | TGI [6] | TGI [7] | TGI [8] | TGI [9] | TGI [10] | GI50 [1] | GI50 [2] | GI50 [3] | GI50 [4] | GI50 [5] | GI50 [6] | GI50 [7] | GI50 [8] | GI50 [9] | GI50 [10]
Cc1cc(Br)cc(C)c1NC(=O)C(=O)C(C(=O)c1ccc(Cl)c(Cl)c1)C1OC(=O)c2ccccc21 (stereo not given) | > 100 µM | > 100 µM | > 100 µM | > 100 µM | > 100 µM | > 100 µM | > 100 µM | > 100 µM | > 100 µM | > 100 µM |  |  |  |  |  |  |  |  |  | 
CCOc1ccc(N2C(N)=NC(N)=NC2(C)C)cc1 | > 100 µM | > 100 µM | > 100 µM | > 100 µM | > 100 µM | > 100 µM | > 100 µM | > 100 µM | > 100 µM | > 100 µM | > 100 µM | 45.8 µM | 56.4 µM | > 100 µM | 62.3 µM | 49.3 µM | > 100 µM | > 100 µM | 36.6 µM | 43.8 µM
Cc1cc(I)cc(CN(C)CCCCN2CCCC2)c1O | 37.3 µM | 30.8 µM | 36.1 µM | 46.2 µM | > 100 µM | 55.7 µM | 67.8 µM | 50.7 µM | 49.5 µM | 15.7 µM | 15.6 µM | 15.5 µM | 19.7 µM | 22.4 µM | 37.2 µM | 18.1 µM | 21.6 µM | 20.8 µM | 18.9 µM | 4.19 µM
CCn1cc(C2NC(=O)c3cc(F)ccc3N2)c2cccc(Cl)c21 (stereo not given) | > 100 µM | > 100 µM | > 100 µM | > 32.1 µM | > 100 µM | > 100 µM | > 100 µM | > 100 µM | > 100 µM | > 61.9 µM | 0.0968 µM | 0.374 µM | 2.55 µM | 0.135 µM | 0.408 µM | 1.92 µM | 0.706 µM | > 100 µM | 0.33 µM | 0.0843 µM
O=C1CCCc2c(O)ccc(O)c21 | > 100 µM | > 100 µM | > 100 µM | 25.7 µM | > 100 µM | > 100 µM | > 100 µM | > 100 µM | > 100 µM | > 100 µM |  |  |  |  |  |  |  |  |  | 
COc1cc(C(=O)c2c(-c3ccccc3)oc3ccccc23)cc(OC)c1O | 15.5 µM | 21.6 µM | 20.5 µM | 19.6 µM | 83.9 µM | 18.6 µM | 52.1 µM | > 100 µM | 16.1 µM | 16 µM | 0.667 µM | 4.33 µM | 1.13 µM | 0.773 µM | 4.8 µM | 3.4 µM | 6.24 µM | 20.5 µM | 3.21 µM | 0.975 µM
Nc1ccccc1C#Cc1ccccc1C#CCCCCO | 42.5 µM | 32.6 µM | 44.4 µM | 31.2 µM | 49.4 µM | > 100 µM | > 100 µM | 91.5 µM | 47.1 µM | 32.5 µM | 19.8 µM | 17 µM | 12.4 µM | 14.3 µM | 20.3 µM | 33.9 µM | > 100 µM | 27.5 µM | 22.6 µM | 11.9 µM
C[C@H]1CC(=O)[C@@]2(O)C#C/C=C\C#C[C@@H]3Nc4c(cc(O)c5c4C(=O)c4ccccc4C5=O)[C@]24O[C@]314 | 0.836 µM and 0.148 µM | 0.18 µM and 0.326 µM | 0.518 µM | 0.293 µM and 0.384 µM | 0.124 µM and 0.258 µM | 0.0897 µM and 0.543 µM | 0.0954 µM |  | 0.453 µM | 0.133 µM | 0.00722 µM | 0.0025 µM |  | 0.032 µM | 0.00468 µM | 0.00599 µM |  | 0.492 µM |  | 
COCCOC(=O)CCn1cc(F)c(=O)[nH]c1=O | > 150 µg/mL | > 150 µg/mL | > 150 µg/mL | > 150 µg/mL | > 150 µg/mL | > 150 µg/mL | > 150 µg/mL | > 150 µg/mL | > 150 µg/mL | > 150 µg/mL | 6.72 µg/mL | 10.4 µg/mL | > 150 µg/mL | 131 µg/mL | 32 µg/mL | 102 µg/mL | 37.1 µg/mL | 6.77 µg/mL | 51 µg/mL | 11 µg/mL
N#CCc1nc2c(s1)C(=O)c1ccccc1C2=O | 29.9 µM | 28.1 µM | 34.3 µM | 29.9 µM | 22.6 µM | 32.2 µM | > 100 µM | 36.5 µM | 31.1 µM | 26.5 µM |  |  |  |  |  |  |  |  |  | 
COc1cc(SC)ccc1C(=O)N1CCCC(C)C1 (stereo not given) | > 100 µM | > 100 µM | > 100 µM | > 100 µM | > 100 µM | > 100 µM | > 100 µM | > 100 µM | > 100 µM | > 100 µM | > 100 µM | > 100 µM | > 100 µM | > 100 µM | > 100 µM | > 100 µM | > 100 µM | > 100 µM | > 100 µM | > 100 µM
COc1ccc(C2CC(C)=Nc3c([nH]c(=S)[nH]c3=O)N2)cc1 (stereo not given) | 33 µM | 34.4 µM | > 100 µM | 30.1 µM | 35.7 µM | > 100 µM | 38.2 µM | 58.1 µM | 32.4 µM | 32.1 µM |  |  |  |  |  |  |  |  |  | 
CN1C=CN(Cc2ccc(-c3ccccn3)nc2)[CH-]1.CN1C=CN(Cc2ccc(-c3ccccn3)nc2)[CH-]1.[Au+3] | > 54.6 µM | 13.4 µM | 10.5 µM | 0.494 µM | > 100 µM | 26.2 µM | > 56.7 µM | 27 µM | 20.8 µM | 6.67 µM | 1.6 µM | 2.89 µM | 2.21 µM | 0.104 µM | 3.19 µM | 5.91 µM | 9.32 µM | 5.09 µM | 4.35 µM | 1.4 µM
O=C(N/N=C\c1cc(Cl)ccc1O)N/N=C/c1cc(Cl)ccc1O | > 100 µM | > 100 µM | > 100 µM | 19 µM | > 100 µM | > 100 µM | > 100 µM | > 100 µM | > 100 µM | > 100 µM | 0.676 µM | 2.14 µM | 34.3 µM | 0.616 µM | 1.77 µM | 9.74 µM | > 100 µM | > 100 µM | 0.997 µM | 0.918 µM
